Results reported in US8822646B2, “Cancer therapies and pharmaceutical compositions used therein” (ProNAi Therapeutics, Inc., priority 2005, dated 2014).

Assays:
WSU-DLCL2 xenografts = assay: Efficacy of liposomal PNT-100 and rituximab in WSU-DLCL2 xenografts (Example 10); type: in vivo, C.B-17 SCID mice; conditions: rituximab 20 mg/kg days 2 and 5; liposomal PNT-100 daily for five days; i.v.
Description: Xenografts with WSU-DLCL2 cells were generated in C.B-17 SCID mice between 4-6 weeks old as described in the previous examples. […] Human pharmaceutical grade rituximab (Biogen Idec-Genentech) was provided by Karmanos Cancer Institute. The mice were treated as in Table 4. [table] Animals were checked three times weekly for tumor growth by caliper measurements. An approximate tumor volume was calculated using the formula ½(a×b^2), where b is the smaller of two perpendicular diameters. Animals were sacrificed when individual animal tumor burden reached 2000 mm^3 or when the study was concluded 81 days post tumor trocar.

Daudi xenografts = assay: Efficacy of liposomal PNT-100 and rituximab in Daudi xenografts (Example 11); type: in vivo, mice; conditions: doses and schedules of Table 5, FIGS. 7-9
Description: Daudi cells are a model of Burkett's lymphoma. Xenografts with Daudi cells were generated in mice as described in the previous examples. Liposomal PNT-100 was formulated as in example 9 and has similar properties and a concentration of 2.4 mg PNT-100 per ml. The mice were divided into 10 groups and treated as in Table 5.
Tumor volume was caliper measured. Studies were concluded when control animal xenografts reached 2000 mm^3. […] FIG. 8 is a Kaplan-Meyer plot, showing the percent of mice whose tumors have not yet reached 2000 mm^3 each day.

[1] = test system: WSU-DLCL2 human diffuse large cell lymphoma; assay: Inhibition of tumor growth in WSU-DLCL2 non-Hodgkin's-lymphoma model with PNT-100 and vincristine (Example 7); type: in vivo, mice
From the text: A non-Hodgkin's-lymphoma model (NHL) was used. The WSU-DLCL2 (Wayne State University diffuse large cell lymphoma) model is a very robust model of chemoresistant aggressive human diffuse large cell lymphoma. It was obtained from Dr. Ramzi Mohammad and Dr. Al-Katib and colleagues at the Karmanos Cancer Institute at Wayne State University. (See Al-Katib, A M, et al., Clin. Cancer Res. 4, 1305-1314 (1998); Mohammad, R, et al., Clin. Cancer Res. 8, 1277-1283 (2002); Mohammad, R M, et al., Mol. Cancer. Ther., 4, 13-21 (2005); Mohammad, R M, et al., Clin. Cancer Res. 6, 4950-4956, (2000).) The study was designed to administer five daily doses of 5 mg/kg PNT-100 (SEQ ID NO: 1251), and in certain cohorts, combination therapy with vincristine.

Substance | complete regression of the tumor (shrinkage below measurable size for three consecutive time points), number of tumors (WSU-DLCL2 xenografts) | complete regression through the 81 day endpoint, number of tumors (WSU-DLCL2 xenografts) | effect on tumor volume / time to 2000 mm^3 (Daudi xenografts) | growth of tumors in mice ([1]; 5 mg/kg PNT-100, alone or with vincristine) | weight loss in the animals ([1]; after one dose, 5 mg/kg planned daily doses)
Rituximab: human pharmaceutical grade rituximab (Biogen Idec-Genentech), antibody directed against CD20 | seven out of eight | four out of eight | little effect |  | 
PNT-100: PNT-100 oligonucleotide not methylated, bcl-2 oligonucleotide, SEQ ID NO:1251 (DNA CACGCACGCGCATCCCCGCCCGTG; sugars by position and backbone not given here; liposomal formulation) |  |  | little effect | decreases the growth tumors | noticeable weight loss
